US20200064357A1, “METHODS FOR DETERMINING AND MONITORING GASTROINTESTINAL INFLAMMATION” (Protagonist Therapeutics, Inc., priority 2016, published 2020)

What was measured:
Assay type in all cases: in vivo
Sprague-Dawley rats [1] = experiment: miR-223-3p expression in distal colon and serum, TNBS rat colitis model (Example E3); conditions: 31 mg/kg/day, vs vehicle group
Method: (§1) Animals from the sham group (without TNBS exposure), the vehicle group (exposed to TNBS and treated with vehicle only) and the group treated with Peptide 993 (exposed to TNBS and treated with Peptide 993 at 31 mg/kg/day) were subjected for gene expression and miroRNA analysis
For extraction of microRNA from distal colon homogenate, the RNeasy Plus Mini Kit and the RNeasy MinElute Cleanup Kit (Qiagen) were used. For extraction of microRNA from serum, miRNeasy Serum/Plasma Kit (Qiagen) was used. To verify uniformity of microRNA extraction, a synthetic microRNA cel-miR-39-3p, at a fixed concentration, was spiked into both distal colon homogenates and serum samples. The microRNAs purified from distal colon and serum was used in the Advanced miRNA cDNA Synthesis Kit (Applied Biosystems) to obtain cDNA templates for the quantative real time PCR. The expression of miR-223-3p, a microRNA known to negatively regulate CLDN8 gene expression, was measured using TaqMan Advanced miRNA assay (Applied Biosystems). The endogenous control miR-16-5p was used for normalization in the distal colon, and the endogenous control miR-24-3p was used for normalization in the serum. Relative expression of miR-223-3p was calculated using the normalized Ct values. […]

Sprague-Dawley rats [2] = experiment: Biomarker gene expression in distal colon, TNBS rat colitis model, quantitative real time PCR (Example E3); conditions: 31 mg/kg/day, normalized to HPRT1, vs vehicle group
Method: as §1
For extraction of total RNA from the distal colons, tissue samples stored at −20° C. in the buffer RNAlater, were thawed and homogenized in RLTplus Buffer (Qiagen) at 20× volume:wt, then subsequently purified using the RNeasy Plus Mini Kit (Qiagen). The concentration of the total RNA was measured and the quality of the RNAs was verified on a gel. The total RNA was used in QuantiTect Reverse Transcription Kit (Qiagen) to obtain cDNA templates for the quantative real time PCR. The expression of the genes LCN2 (Lipocalin 2), S100A8 (a subunit of calprotectin) and CLDN8 (Claudin 8 of the claudin family of tight junction proteins) were measured using Taqman and TaqMan Fast Advanced Master Mix (Applied Biosystems). The threshold cycle number (Ct) values, that are indicative of abundance of template, were normalized using the endogenous control gene HPRT1. The Relative expression of each gene was calculated using the normalized Ct values. Statistical analysis of relative expression was performed using One-way ANOVA method (with Dunnett's multiple comparisons) to compare the variations Vs Group 2.

Sprague-Dawley rats [3] = experiment: Disease pathology in TNBS-induced rat colitis: colon weight/length, colonic score, histology (Example E4)
Method: In the first model, acute colitis was induced in Sprague-Dawley rats by a single intra-rectal instillation of TNBS followed by efficacy analysis at day seven. The animals were grouped into sham+vehicle (PO TID), TNBS+vehicle (PO TID), anti-IL23p19 antibody (4 mg/kg/day IP, Day −1 and Day 3), and Peptide 993 treatment at 9, 28, or 61 mg/kg/day (PO TID+in drinking water). Sham indicates animals not treated with TNBS.
Following treatment, weight and length were determined from entire colon; colonic score was evaluated as sum of adhesion (0-2), stricture (0-3), ulcer (0-5), and colon wall thickness (0-2); histology was evaluated by a pathologist as sum of mucosal/submucosal inflammation (0-5), transmural inflammation (0-5), erosion (0-5), and gland loss (0-5). Values shown as mean±SD (FIGS. 9A-9C). Statistical significance was assessed by One-way ANOVA with post-hoc Dunnett's vs. Vehicle control: **p≤0.01; ***p≤0.001; ****p≤0.0001; ns, not significant.

Sprague-Dawley rats [4] = experiment: CLDN8 gene expression and colonic score in TNBS-induced rat colitis (Example E5)
Method: The claudin family of proteins are components of the tight junction complex. Through expression analysis and colonic scoring, claudins were analyzed as biomarkers for IBD disease severity. […] CLDN8 gene expression was analyzed in a TNBS-induced rat model of […] following the protocols described in Example E1.

Sprague-Dawley rats [5] = experiment: Serum LCN2, TNBS rat colitis model, ELISA (Example E2); conditions: per ml of serum, vs vehicle
Method: The animals were grouped into sham, vehicle, and Peptide 993 treatment at 31 mg/kg/day. Feces were collected from the distal colon of rats and were immediately frozen at the time of necropsy. The feces samples were weighed and homogenized in extraction buffer (PBS pH 7.4 containing Pierce Protease Inhibitors, 3× volume:weight). The samples were incubated on ice for 90 minutes, with intermittent vortexing for complete homogenization. After centrifugation at 3000 g at 4 C, the homogenates were transferred to fresh tubes and subjected to another centrifugation at 14000 g at 4 C. The cleared supernatants were saved in multiple aliquots and stored at −80 C until analysis.
The serum samples were immediately frozen and thawed only once before use in the ELISA. For LCN2, the samples were diluted at different ratios with assay dilution buffer to capture the large variation in concentration amongst the different groups. The dilution ratios used were 1:10 (for sham), 1:1000, 1:2000 and 1:10000 (vehicle and Peptide 993). Fecal Lipocalin2(LCN2)/NGAL analysis:
Serum samples were analyzed for LCN2 concentration using the above ELISA protocol. Serum samples were used at dilutions ranging from 1:[…] to ensure that the measurements were within the range and sensitivity of the kit. […] Statistical analysis was performed using 1-Way-ANOVA with Dunnetts's multiple comparison.

[6] = TNBS rats, day seven, 9, 28 or 61 mg/kg/day PO TID + in drinking water, vs vehicle
[7] = acute TNBS-induced rat colitis model, oral treatment

CC(=O)NC(CCCNC(=N)N)C(=O)NC1CCSCC(C(=O)NC(Cc2ccc(OCCN)cc2)C(=O)NC(Cc2ccc3ccccc3c2)C(=O)NC2(C(=O)NC(CCC(=O)O)C(=O)NC(CC(N)=O)C(=O)NC(CC(N)=O)C(N)=O)CCOCC2)NC(=O)C(CCC(N)=O)NC(=O)C(Cc2c[nH]c3ccccc23)NC(=O)C(C(C)O)NC(=O)C(CCC(N)=O)NC1=O (stereo not shown) [Peptide 993, Ac-[(D)-Arg]-cyclo[[Abu]-QTWQC]-[Phe[4-(2-aminoethoxy)]]-[2-Nal]-[4-amino-4-carboxy-tetrahydropyran]-ENN-NH2]
miR-223-3p expression in the distal colon (Sprague-Dawley rats [1]; normalized to miR-16-5p): not statistically significant, however there was a marked reduction in the average expression of the group
miR-223-3p expression in serum (Sprague-Dawley rats [1]; normalized to miR-24-3p): no apparent change
S100A8 expression, distal colon (Sprague-Dawley rats [2]): not statistically significant, however there was a marked reduction in the average expression of the group
relative expression of CLDN8, distal colon (Sprague-Dawley rats [2]): increase
relative expression of LCN2, distal colon (Sprague-Dawley rats [2]): significant reduction
colon weight-to-length ratio (Sprague-Dawley rats [3]; [6]): significant and dose-dependent reduction
histopathological changes in the colon (Sprague-Dawley rats [3]; [6]): normalization
macroscopic changes in the colon (colonic score) (Sprague-Dawley rats [3]; [6]): normalization
activity compared with neutralizing anti-IL-23p19 monoclonal antibody (4 mg/kg/day IP) (Sprague-Dawley rats [3]; [7]): comparable
disease parameters (Sprague-Dawley rats [3]; [7]): significant and dose-dependent attenuation
levels of CLDN8 expression, distal colon (Sprague-Dawley rats [4]; vs vehicle control-treated): restored levels of CLDN8 expression above vehicle control-treated subjects
colonic score (0-12) (Sprague-Dawley rats [4]; vs vehicle treated animals): reduced
serum LCN2 concentration (Sprague-Dawley rats [5]): statistically significant decrease
